Data: patent US8361510B2, “Nanogels for cellular delivery of therapeutics” (Georgia Tech Research Corporation, priority 2008, dated 2013)
Where no end group is shown, it is not given here.

Tested on: Hey cells
Experiment: Nanogel/siGLO uptake by confocal microscopy, Hey cells
Format: cell-based
Conditions: Hey cells (high EphA2), 4 h incubation, serum-containing medium
Description: Cell transfection using nanogels. Hey or BG-1 cells were plated onto an 8-well chamber slide (5×10^3 cells/well), and the cells allowed to adhere overnight at 37° C. in a 5% CO2 atmosphere. After washing the wells with PBS and replacing the media, siGLO-loaded/YSA-conjugated nanogels, unloaded YSA-conjugated nanogels, pNIPMAm nanogels, or siGLO only were added to wells. Cells were incubated in each case for 4 h. In experiments where preincubation of ephrin-A1 was used to initiate internalization and degradation of EphA2, ephrin-A1 was added to the media at a final concentration of the ligand of 2 μg/mL. After incubation, the cells were washed with PBS, and the medium replaced. For fixation prior to confocal imaging, the cells were incubated with 2% (v/v) paraformaldehyde for 30 min
Confocal microscopy. A Zeiss LSM510 confocal microscope was used to take cell images. Cells were incubated with nanogels for 4 h. After 4 h, the cells were washed and then fixed on the slide. […]
Following loading with siGLO, nanogels were incubated with either Hey (high EphA2 expression) or BG-1 (low EphA2 expression) cells in order to compare the levels of targeted uptake by ovarian cancer cells. Uptake of the nanogels into the cells was followed using a fluorescent tag (AFA) incorporated into the nanogel core as well as by the fluorescence of the siGLO. […]

YSA-conjugated nanogels: core/shell pNIPMAm nanogels with YSA peptide coupled to shell amines via maleimide (EMCA) (YSAYPDSVPMMSC; also: coupled to nanogel shell amines via maleimide (EMCA))
nanogel uptake (green AFA fluorescence): strong green fluorescence
